{
  "source": "patent US8647887B2",
  "about": "“Measuring G protein coupled receptor activation” (Commonwealth Scientific and Industrial Research Organisation, priority 2009, dated 2014)",
  "key": {"Str112 receptor (TGTR)": {"tested_on": "Str112 receptor (TGTR)", "assay": "cell-free BRET^2 assay with dual-tagged Str112 (TGTR)", "type": "biochemical, C. elegans", "details": "1 μM ligand, 10 nM TGTR; for BRET^2 signal compared to the response of TGTR to water, significance: P≦0.05", "from_the_text": "(§1) The TGTR sequence flanked by NcoI and NotI restriction sites was synthesised by Genscript. The TGTR sequence was inserted into the NcoI and NotI sites of the pENTR11 vector. These were then recombined into pYES-DEST52 (Invitrogen) using Gateway® technology for subsequent expression in S. cerevisiae.\nThe same expression protocol was used for the expression of TGTR in InVSC1 as for OGOR expression. The TGTR coding sequence is provided as SEQ ID NO:51, whereas the amino acid sequence is provided as SEQ ID NO:52.\nThe same RET analysis protocol as described for the OGOR selectivity studies. 1 μM of the ligands pyruvic acid, citric acid, ethyl acetate, acetoin and diacteyl was assayed with 10 nM of TGTR\nThe bacterial strain OP50 was grown in LB overnight at 37° C. with shaking (200 rpm). E. coli strain OP50 is usually used as a food source for nematode growth in the laboratory (Brenner, 1974). Two assays were performed using the OP50 bacterial culture. The first assay was the addition of 10 μL of the bacterial culture or 10 μL of LB to 10 nM TGTR. The second assay required that 1 mL of the bacterial culture was placed in a microcentrifuge tube and centrifuged at 10000×g for 1 minute. 10 μL of the supernatant, following decanting into a fresh microcentrifuge tube, or 10 μL of LB was added to 10 nM TGTR. Following bacterial sample addition the same protocol was followed as for the OGOR RET analysis."}, "ODR-10 receptor (OGOR)": {"tested_on": "ODR-10 receptor (OGOR)", "assay": "cell-free BRET^2 assay with dual-labelled ODR-10 (OGOR) in yeast membrane preparations", "type": "biochemical, C. elegans", "description": "Cells were harvested by centrifugation at 1500×g (4° C.) for 5 minutes, washed in water and resuspended in 4 mL of Dulbecco's phosphate buffered saline (D-PBS) or 1×PBS, containing 1000 mg/L glucose, 36 mg/L sodium pyruvate, calcium and magnesium (Invitrogen). The cells were lysed by French press (˜18000 psi) and the soluble protein fractions were isolated by centrifugation at 9300×g (4° C.) for 15 minutes. Following this the soluble protein fraction was transferred to 13.15 mL polycarbonate thick wall centrifuge tubes and ultracentrifuged at 40,000 rpm (Beckman Coulter L-80 ultra-centrifuge) for 1 hour at 4° C. The supernatant was decanted and the membrane pellet resuspended in 1 mL of D-PBD or 1×PBS, and left overnight at 4° C. to solubilise.\nSimultaneous dual emission RET measurements were carried out with a POLARstar OPTIMA microplate reader (BMG LabTech). Simultaneous emission measurements used a BRET^2 filter set (410-80/515-30) with the set respective gains for each channel (3300/4095).\nTo assess the relative concentrations of BRET^2 tagged receptor samples the fluorescence intensity of the sample was determined from spectral scans and the sample amount normalized by the OGOR fluorescence intensity. To convert GFP^2 intensity into concentration purified GFP^2 protein was assayed at different concentrations to produce a calibration graph relating concentration to fluorescence intensity. […] Rearranging the line of best fit equation (y=271x+233.31) results in conversion of fluorescence intensity to concentration. […]\nRET analysis was carried out in 96-well plates (Perkin-Elmer) and involved incubating the specified dual tagged receptor protein (OGOR) for 45 minutes with 1 μM of each particular odorant. […] A background signal was recorded by assaying a sample of D-PBS (or 1×PBS). […]\nFor BRET measurements Clz400a substrate (5 μM) was added following the 45 minute incubation time and the signal recorded using a 0.50s integration time over a 5 second period. Following addition of Clz400a the well was re-sealed while the signal was recorded to reduce cross-contamination of samples. […]"}, "whole-cell BRET^2 assay": {"assay": "whole-cell BRET^2 assay", "type": "cell-based", "details": "1 μM, 45 minutes incubation, P≦0.05", "description": "FIG. 16. BRET^2 signal upon incubation (45 minutes) with 1 μM of diacetyl (mean±S.D., n=3) monitored using a whole-cell and cell-free assay systems."}, "OGOR mutant (H110Y)": {"tested_on": "OGOR mutant (H110Y)", "assay": "cell-free BRET^2 assay with OGOR mutant (H110Y), negative control", "type": "biochemical, C. elegans", "details": "μM concentrations of diacetyl", "description": "Site-directed mutagensis was carried out with OGOR in pDONR201 vector (see above) as the double stranded template. The histidine 110 to tyrosine (H110Y) mutation was performed using the Stratagene Quickchange site directed mutagenesis kit according to standard protocols using the following primers; 5′-[…]-3′ (WT) (SEQ ID NO:43) and 5′-[…] GTG-3′ (H110Y antisense) (SEQ ID NO:44).\nPCR was performed with Pfx50™ standard ingredients (Invitrogen) and conditions were as follows 94° C. 2 mins, 16 cycles of 94° C. 30 secs, 55° C. 1 minute, 68° C. 6.8 minutes. Following sequencing the OGOR mutant was then subcloned into pYES-DEST52 (Invitrogen) using Gateway® technology (5′ and 3′ attB sites were included in original OGOR sequence) for subsequent expression in S. cerevisiae.\nRET analysis was carried out in 96-well plates (Perkin-Elmer) and involved incubating the specified dual tagged receptor protein (OGOR) for 45 minutes with 1 μM of each particular odorant. The final volume was 100 μL and included 10 μL of odorant, receptor protein sample (see ‘Normalization of sample concentration’ section), D-PBS (or 1×PBS) and 5 μL of Clz400a (5 μM). A background signal was recorded by assaying a sample of D-PBS (or 1×PBS). During the incubation time the 96-well plate wells were sealed with Topseal™—A (Packard) with each sample area individually sealed. […]"}, "[1]": {"tested_on": "ODR-10 expressing HEK 293 cells", "details": "cited from earlier work"}, "ODR-10 receptor (OCOY)": {"tested_on": "ODR-10 receptor (OCOY)", "assay": "cell-free FRET assay with dual-labelled ODR-10 (OCOY)", "type": "biochemical, C. elegans", "details": "μM concentrations of diacetyl", "description": "All spectral scans were recorded with a plate-reading SpectraMax M2 spectrofluorimeter (Molecular Devices). 100 μL aliquots of membrane preparations sample were scanned using 96-well plates (Perkin-Elmer). Fluorescence spectral scans recorded from 450 to 600 nm with an excitation wavelength of 420 nm using a 455 nm emission cut-off filter.\nTo compare the sensitivity of the BRET^2 system to the FRET system for monitoring GPCR activation the BRET^2 components used to tag the ODR-10 receptor (OGOR) were replaced with FRET components resulting in the insertion of CFP into the 3rd intracellular loop and YFP at the C-terminus (OCOY). The CFP (mCFP) (SEQ ID NO:45) and YFP (mCitrine) (SEQ ID NO:46) derivatives were both monomeric and codon optimized (EUROSCARF) for yeast expression (SEQ ID NOs 47 and 48 respectively).\nas §1, with “OCOY” for “TGTR”, “KpnI” for “NcoI”, “XhoI” for “NotI”, “cerevisiae. […]” for “cerevisiae.”\nTo assess the relative concentrations of dual-tagged receptor samples the fluorescence intensity of the sample was determined from spectral scans and the sample amount normalized by the OCOY fluorescence intensity. […]"}, "α2A receptor": {"biological_target": "T1, α2A receptor (Mus musculus, UniProt Q01338)", "T1 sequence (Q01338 1-465)": "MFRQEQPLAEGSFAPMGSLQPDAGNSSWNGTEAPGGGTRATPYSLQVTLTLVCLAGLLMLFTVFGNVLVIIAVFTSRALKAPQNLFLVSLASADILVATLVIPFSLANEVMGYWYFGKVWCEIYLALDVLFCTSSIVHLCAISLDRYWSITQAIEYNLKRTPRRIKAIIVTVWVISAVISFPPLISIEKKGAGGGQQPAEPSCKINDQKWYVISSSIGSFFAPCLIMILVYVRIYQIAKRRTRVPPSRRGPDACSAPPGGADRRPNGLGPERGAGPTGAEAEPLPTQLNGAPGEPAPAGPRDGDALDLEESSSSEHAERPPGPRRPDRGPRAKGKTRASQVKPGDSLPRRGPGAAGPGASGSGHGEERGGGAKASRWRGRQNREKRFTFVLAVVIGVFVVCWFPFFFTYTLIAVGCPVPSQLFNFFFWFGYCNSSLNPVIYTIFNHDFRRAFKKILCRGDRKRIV", "details": "10 nM; cited from earlier work"}, "PTHR": {"biological_target": "T2, PTHR (Homo sapiens, UniProt Q03431)", "T2 sequence (Q03431 27-593)": "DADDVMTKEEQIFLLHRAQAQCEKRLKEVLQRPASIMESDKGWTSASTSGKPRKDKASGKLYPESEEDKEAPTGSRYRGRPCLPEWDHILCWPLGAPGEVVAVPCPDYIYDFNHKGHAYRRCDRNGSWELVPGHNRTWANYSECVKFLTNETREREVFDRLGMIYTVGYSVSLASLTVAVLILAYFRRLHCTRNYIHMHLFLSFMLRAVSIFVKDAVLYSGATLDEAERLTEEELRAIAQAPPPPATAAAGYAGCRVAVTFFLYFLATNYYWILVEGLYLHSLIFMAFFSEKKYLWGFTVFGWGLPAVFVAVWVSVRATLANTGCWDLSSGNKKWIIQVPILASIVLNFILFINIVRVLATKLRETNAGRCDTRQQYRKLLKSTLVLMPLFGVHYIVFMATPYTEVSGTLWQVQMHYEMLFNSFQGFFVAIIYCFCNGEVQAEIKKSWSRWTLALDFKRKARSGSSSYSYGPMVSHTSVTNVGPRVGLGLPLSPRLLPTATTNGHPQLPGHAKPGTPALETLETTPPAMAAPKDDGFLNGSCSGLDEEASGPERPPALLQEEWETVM", "details": "1 μM; cited from earlier work"}},
  "note": "Where “and” joins values, the source holds several entries; their conditions need not be identical. Equal values may be shown once.",
  "data": [
    {"compound": "CC(=O)C(C)O", "note": "(stereo not shown) [acetoin]", "values": [
      {"measurement": "increase in the BRET^2 signal", "setting": "Str112 receptor (TGTR)", "result": 20.8, "unit": "%"},
      {"measurement": "BRET^2 signal compared to the response of TGTR to water, significance", "setting": "Str112 receptor (TGTR)", "result": "significantly higher"}
    ]},
    {"compound": "CC(=O)C(C)=O", "note": "[diacetyl]", "values": [
      {"measurement": "decrease in the BRET^2 signal, cell-free assay system", "setting": "ODR-10 receptor (OGOR); 1 μM, 45 minutes incubation, Example 7, P≦0.05", "result": 52, "unit": "%"},
      {"measurement": "change in BRET^2 signal compared to the solvent (water) response", "setting": "ODR-10 receptor (OGOR); OGOR, μM concentrations (1 μM) of ligand, 45 minutes incubation, decrease in signal", "result": "37.5% and 32.4%"},
      {"measurement": "EC50 expressed as parts per quadrillion", "setting": "ODR-10 receptor (OGOR); equivalent of the fM EC50", "result": 0.31, "unit": "ppq"},
      {"measurement": "change in the BRET^2 signal, whole cell assay", "setting": "whole-cell BRET^2 assay", "result": "no significant change"},
      {"measurement": "BRET^2 response to diacetyl", "setting": "OGOR mutant (H110Y)", "result": 4.1, "unit": "%"},
      {"measurement": "response versus solvent (water) response, significance", "setting": "OGOR mutant (H110Y)", "result": "not significantly different"},
      {"measurement": "Ca^2+ elevation response", "setting": "[1]; ODR-10 expressing HEK 293 cells", "result": "the only volatile compound to produce a Ca^2+ elevation response"},
      {"measurement": "apparent affinity (EC50) as part per million", "setting": "[1]; expressed in human cells, calcium imaging", "result": "~0.2", "unit": "ppm"},
      {"measurement": "EC50", "setting": "[1]; expressed in human cells, calcium imaging, read-out: apparent affinity (EC50) of ODR-10 for diacetyl", "result": 2.3, "unit": "µM"},
      {"measurement": "reduction in FRET ratio (intensity at 520 nm/intensity at 480 nm)", "setting": "ODR-10 receptor (OCOY)", "result": 7.6, "unit": "%"},
      {"measurement": "response versus solvent (water) response, significance", "setting": "ODR-10 receptor (OCOY)", "result": "significantly different"}
    ]},
    {"compound": "NC[C@H](O)c1ccc(O)c(O)c1", "note": "[norepinephrine]", "values": [
      {"measurement": "change in the FRET signal upon binding", "setting": "α2A receptor", "result": "~5", "unit": "%"}
    ]},
    {"compound": "CC(=O)C(=O)O", "note": "[pyruvic acid]", "values": [
      {"measurement": "BRET^2 signal compared to the response of TGTR to water, significance", "setting": "Str112 receptor (TGTR)", "result": "significantly higher"}
    ]},
    {"compound": "PTH: parathyroid hormone, agonist of PTHR, literature value", "values": [
      {"measurement": "change in the FRET signal upon binding", "setting": "PTHR", "result": "~20", "unit": "%"}
    ]}
  ]
}
